Laboratory results as given in ChEMBL document CHEMBL1142066, “In vitro effects of antimicrobial agents on planktonic and biofilm forms of Staphylococcus lugdunensis clinical isolates” (2007).
Converted amounts (≈) assume the structure as drawn. The source made the active and inactive calls. No cut-off for these calls is given here.

Assays:
[1] = test system: Staphylococcus lugdunensis; assay: Effect on biofilm formation of Staphylococcus lugdunensis assessed as percent non-biofilm forming isolates; assay type: functional; parameters: concentration or dose not given beside the values
Staphylococcus aureus [2] = assay: Increase in biofilm formation of Staphylococcus aureus SA113 at 0.25 times MIC; assay type: functional, organism-based
[3] = test system: Staphylococcus epidermidis; assay: Increase in biofilm formation of Staphylococcus epidermidis RP62A at 0.25 times MIC; assay type: functional, organism-based
[4] = test system: Staphylococcus lugdunensis; assay: Antimicrobial susceptibility of Staphylococcus lugdunensis isolates by broth microdilution method; assay type: functional; conditions: for MIC50 / MIC90: Staphylococcus lugdunensis
[5] = test system: Staphylococcus lugdunensis; assay: Antimicrobial susceptibility of Staphylococcus lugdunensis IDRL856 biofilms after 24 hrs assessed as bacterial regrowth; assay type: functional
[6] = test system: Staphylococcus lugdunensis; assay: Antimicrobial susceptibility of Staphylococcus lugdunensis IDRL2394 biofilms after 24 hrs assessed as bacterial regrowth; assay type: functional
[7] = test system: Staphylococcus lugdunensis; assay: Antimicrobial susceptibility of Staphylococcus lugdunensis IDRL2414 biofilms after 24 hrs assessed as bacterial regrowth; assay type: functional
[8] = test system: Staphylococcus lugdunensis; assay: Antimicrobial susceptibility of Staphylococcus lugdunensis IDRL2492 biofilms after 24 hrs assessed as bacterial regrowth; assay type: functional
[9] = test system: Staphylococcus lugdunensis; assay: Antimicrobial susceptibility of Staphylococcus lugdunensis IDRL2526 biofilms after 24 hrs assessed as bacterial regrowth; assay type: functional
[10] = test system: Staphylococcus lugdunensis; assay: Antimicrobial susceptibility of Staphylococcus lugdunensis IDRL2554 biofilms after 24 hrs assessed as bacterial regrowth; assay type: functional
[11] = test system: Staphylococcus lugdunensis; assay: Antimicrobial susceptibility of Staphylococcus lugdunensis IDRL2588 biofilms after 24 hrs assessed as bacterial regrowth; assay type: functional
[12] = test system: Staphylococcus lugdunensis; assay: Antimicrobial susceptibility of Staphylococcus lugdunensis IDRL2622 biofilms after 24 hrs assessed as bacterial regrowth; assay type: functional
[13] = test system: Staphylococcus lugdunensis; assay: Antimicrobial susceptibility of Staphylococcus lugdunensis IDRL2639 biofilms after 24 hrs assessed as bacterial regrowth; assay type: functional
[14] = test system: Staphylococcus lugdunensis; assay: Antimicrobial susceptibility of Staphylococcus lugdunensis IDRL2640 biofilms after 24 hrs assessed as bacterial regrowth; assay type: functional
[15] = test system: Staphylococcus lugdunensis; assay: Antimicrobial susceptibility of Staphylococcus lugdunensis IDRL2664 biofilms after 24 hrs assessed as bacterial regrowth; assay type: functional
[16] = test system: Staphylococcus lugdunensis; assay: Antimicrobial susceptibility of Staphylococcus lugdunensis IDRL5204 biofilms after 24 hrs assessed as bacterial regrowth; assay type: functional
[17] = test system: Staphylococcus lugdunensis; assay: Antimicrobial susceptibility of Staphylococcus lugdunensis IDRL5254 biofilms after 24 hrs assessed as bacterial regrowth; assay type: functional
[18] = test system: Staphylococcus lugdunensis; assay: Antimicrobial susceptibility of Staphylococcus lugdunensis IDRL5256 biofilms after 24 hrs assessed as bacterial regrowth; assay type: functional
[19] = test system: Staphylococcus lugdunensis; assay: Antimicrobial susceptibility of Staphylococcus lugdunensis IDRL5258 biofilms after 24 hrs assessed as bacterial regrowth; assay type: functional
[20] = test system: Staphylococcus lugdunensis; assay: Increase in biofilm formation of Staphylococcus lugdunensis assessed as percent biofilm forming isolates; assay type: functional
[21] = test system: Staphylococcus lugdunensis; assay: Decrease in biofilm formation of Staphylococcus lugdunensis assessed as percent biofilm forming isolates; assay type: functional; parameters: concentration or dose not given beside the values
Staphylococcus aureus [22] = assay: Decrease in biofilm formation of Staphylococcus aureus SA113; assay type: functional, organism-based
[23] = test system: Staphylococcus epidermidis; assay: Decrease in biofilm formation of Staphylococcus epidermidis RP62A; assay type: functional, organism-based
[24] = test system: Staphylococcus lugdunensis; assay: Stimulation of Staphylococcus lugdunensis IDRL5256 biofilm formation; assay type: functional, organism-based
[25] = test system: Staphylococcus lugdunensis; assay: Antimicrobial susceptibility of Staphylococcus lugdunensis IDRL5204 isolate from prosthetic joint infection patient by broth microdilution method; assay type: functional
[26] = test system: Staphylococcus lugdunensis; assay: Antimicrobial susceptibility of Staphylococcus lugdunensis IDRL2394 isolate from prosthetic joint infection patient by broth microdilution method; assay type: functional
[27] = test system: Staphylococcus lugdunensis; assay: Antimicrobial susceptibility of Staphylococcus lugdunensis IDRL5254 isolate from intravascular catheter infection patient by broth microdilution method; assay type: functional
[28] = test system: Staphylococcus lugdunensis; assay: Antimicrobial susceptibility of Staphylococcus lugdunensis IDRL5256 isolate from prosthetic joint infection patient by broth microdilution method; assay type: functional
[29] = test system: Staphylococcus lugdunensis; assay: Ratio of MBC to MIC for Staphylococcus lugdunensis IDRL5256 isolate from prosthetic joint infection patient by broth microdilution method; assay type: functional

Structure (SMILES)	MIC50 [4]	MIC90 [4]	Activity [1]	MBC50 [4]	MBC90 [4]	BBC [5]	BBC [6]	BBC [7]	BBC [8]	BBC [9]	BBC [11]	BBC [12]	BBC [13]	BBC [14]	BBC [16]	BBC [17]	BBC [18]	BBC [19]	Activity [20]	Activity [21]	further results
CC(=O)NC[C@H]1CN(c2ccc(N3CCOCC3)c(F)c2)C(=O)O1 [LINEZOLID]	1 µg/mL (≈ 2.96 µM)	1 µg/mL (≈ 2.96 µM)	20%	>128 µg/mL	>128 µg/mL	>128 µg/mL	>128 µg/mL	>128 µg/mL	>128 µg/mL	>128 µg/mL	>128 µg/mL	>128 µg/mL	>128 µg/mL	>128 µg/mL	4 µg/mL	>128 µg/mL	>128 µg/mL	>128 µg/mL	0%	80%	Activity (Staphylococcus aureus [2]): Active; Activity [3]: Active; BBC [10]: >128 µg/mL; BBC [15]: >128 µg/mL
COc1c(N2C[C@@H]3CCCN[C@@H]3C2)c(F)cc2c(=O)c(C(=O)O)cn(C3CC3)c12 [MOXIFLOXACIN]	0.125 µg/mL (≈ 0.311 µM)	0.25 µg/mL (≈ 0.623 µM)	33%	0.125 µg/mL (≈ 0.311 µM)	0.25 µg/mL (≈ 0.623 µM)	0.25 µg/mL	2 µg/mL	0.5 µg/mL	0.25 µg/mL	0.5 µg/mL	0.5 µg/mL	2 µg/mL	0.25 µg/mL	2 µg/mL	0.5 µg/mL	0.5 µg/mL	1 µg/mL	<=0.125 ug ml-1	27%	40%	BBC [10]: <=0.125 ug ml-1; BBC [15]: <=0.125 ug ml-1
CCCCCCCCCC(=O)N[C@@H](Cc1c[nH]c2ccccc12)C(=O)N[C@H](CC(N)=O)C(=O)N[C@@H](CC(=O)O)C(=O)N[C@@H]1C(=O)NCC(=O)N[C@@H](CCCN)C(=O)N[C@@H](CC(=O)O)C(=O)N[C@H](C)C(=O)N[C@@H](CC(=O)O)C(=O)NCC(=O)N[C@H](CO)C(=O)N[C@@H]([C@H](C)CC(=O)O)C(=O)N[C@@H](CC(=O)c2ccccc2N)C(=O)O[C@@H]1C	0.125 µg/mL (≈ 0.0771 µM)	0.25 µg/mL (≈ 0.154 µM)	87%	0.5 µg/mL (≈ 0.309 µM)	1 µg/mL (≈ 0.617 µM)	16 µg/mL	64 µg/mL	>128 µg/mL	8 µg/mL	8 µg/mL	128 µg/mL	1 µg/mL	32 µg/mL	>128 µg/mL	8 µg/mL	128 µg/mL	64 µg/mL	16 µg/mL	13%	0%	BBC [10]: 4 µg/mL; BBC [15]: 32 µg/mL
Cc1cc(NS(=O)(=O)c2ccc(N)cc2)no1 [SULFAMETHOXAZOLE]	–	–	–	–	–	–	–	–	–	–	–	–	–	–	–	–	–	–	–	–	MIC [25]: 304 µg/mL (≈ 1200 µM)
Cc1nnc(SCC2=C(C(=O)O)N3C(=O)[C@@H](NC(=O)Cn4cnnn4)[C@H]3SC2)s1 [CEFAZOLIN]	0.25 µg/mL (≈ 0.55 µM)	0.5 µg/mL (≈ 1.1 µM)	80%	0.5 µg/mL (≈ 1.1 µM)	1 µg/mL (≈ 2.2 µM)	>128 µg/mL	>128 µg/mL	>128 µg/mL	>128 µg/mL	>128 µg/mL	>128 µg/mL	2 µg/mL	4 µg/mL	>128 µg/mL	1 µg/mL	>128 µg/mL	>128 µg/mL	>128 µg/mL	13%	7%	BBC [10]: >128 µg/mL; BBC [15]: 8 µg/mL
COc1cc(Cc2cnc(N)nc2N)cc(OC)c1OC [TRIMETHOPRIM]	–	–	–	–	–	–	–	–	–	–	–	–	–	–	–	–	–	–	–	–	MIC [25]: 16 µg/mL (≈ 55.1 µM)
CN[C@H](CC(C)C)C(=O)N[C@H]1C(=O)N[C@@H](CC(N)=O)C(=O)N[C@H]2C(=O)N[C@H]3C(=O)N[C@H](C(=O)N[C@H](C(=O)O)c4cc(O)cc(O)c4-c4cc3ccc4O)[C@H](O)c3ccc(c(Cl)c3)Oc3cc2cc(c3O[C@@H]2O[C@H](CO)[C@@H](O)[C@H](O)[C@H]2O[C@H]2C[C@](C)(N)[C@H](O)[C@H](C)O2)Oc2ccc(cc2Cl)[C@H]1O [VANCOMYCIN]	1 µg/mL (≈ 0.69 µM)	2 µg/mL (≈ 1.38 µM)	47%	>128 µg/mL	>128 µg/mL	>128 µg/mL	>128 µg/mL	>128 µg/mL	>128 µg/mL	>128 µg/mL	>128 µg/mL	>128 µg/mL	>128 µg/mL	>128 µg/mL	4 µg/mL	>128 µg/mL	>128 µg/mL	>128 µg/mL	27%	27%	MBC [26]: 64 µg/mL (≈ 44.2 µM); MBC [27]: 64 µg/mL (≈ 44.2 µM); MBC [28]: 4 µg/mL (≈ 2.76 µM); Ratio [29]: >=64; BBC [10]: 4 µg/mL; BBC [15]: 8 µg/mL

More lines, main results first:

MIC50 [4]	MIC90 [4]	Structure (SMILES)	Activity [1]	MBC50 [4]	MBC90 [4]	BBC [5]	BBC [6]	BBC [7]	BBC [8]	BBC [9]	BBC [11]	BBC [12]	BBC [13]	BBC [14]	BBC [16]	BBC [17]	BBC [18]	BBC [19]	Activity [20]	Activity [21]	further results
0.5 µg/mL (≈ 1.21 µM)	0.5 µg/mL (≈ 1.21 µM)	CCOc1ccc2ccccc2c1C(=O)N[C@@H]1C(=O)N2[C@@H]1SC(C)(C)[C@@H]2C(=O)O [NAFCILLIN]	7%	0.5 µg/mL (≈ 1.21 µM)	2 µg/mL (≈ 4.83 µM)	16 µg/mL	>128 µg/mL	>128 µg/mL	8 µg/mL	4 µg/mL	8 µg/mL	8 µg/mL	1 µg/mL	>128 µg/mL	0.5 µg/mL	>128 µg/mL	>128 µg/mL	0.5 µg/mL	93%	0%	Activity (Staphylococcus aureus [22]): Active; Activity [23]: Active; BBC [10]: 2 µg/mL; BBC [15]: 2 µg/mL
0.25 µg/mL (≈ 0.563 µM)	1 µg/mL (≈ 2.25 µM)	CN(C)[C@@H]1C(O)=C(C(N)=O)C(=O)[C@@]2(O)C(O)=C3C(=O)c4c(O)cccc4[C@@](C)(O)[C@H]3C[C@@H]12 [TETRACYCLINE]	0%	>32 µg/mL	>32 µg/mL	128 µg/mL	128 µg/mL	128 µg/mL	128 µg/mL	128 µg/mL	128 µg/mL	128 µg/mL	16 µg/mL	128 µg/mL	1 µg/mL	128 µg/mL	128 µg/mL	64 µg/mL	7%	93%	Activity [24]: Active; BBC [10]: 128 µg/mL; BBC [15]: 128 µg/mL
≤ 0.03 µg/mL	≤ 0.03 µg/mL	CO[C@H]1/C=C/O[C@@]2(C)Oc3c(C)c(O)c4c(O)c(c(/C=N/N5CCN(C)CC5)c(O)c4c3C2=O)NC(=O)/C(C)=C\C=C\[C@H](C)[C@H](O)[C@@H](C)[C@@H](O)[C@@H](C)[C@H](OC(C)=O)[C@@H]1C [RIFAMPIN]	93%	8 µg/mL (≈ 9.72 µM)	>32 µg/mL	8 µg/mL	0.25 µg/mL	0.25 µg/mL	64 µg/mL	32 µg/mL	64 µg/mL	64 µg/mL	32 µg/mL	64 µg/mL	32 µg/mL	64 µg/mL	32 µg/mL	8 µg/mL	7%	0%	–
